This note sets out measurements from paper PMC12888861, “Antibacterial activity of enmetazobactam against Acinetobacter spp.: a molecular dissection of mechanism of action and resistance determinants” (Antimicrobial Agents and Chemotherapy, 2025).

≈ marks a conversion by molar mass, not a printed value. Like-named read-outs stand apart in the source and are kept apart here. Bounds are passed on as bounds.

The subject of assay [1] is Acinetobacter spp. clinical isolates. As to the kind of experiment: MBC testing, nine clinical isolates. Format: cell-based. To be noted: for MBC relative to MIC: nine clinical isolates, most of the isolates. The procedure: In order to determine the bactericidal activity of enmetazobactam, MBC testing was carried out by subculturing 100 μL aliquots from wells containing antimicrobial concentrations equal to or greater than the MIC of enmetazobactam onto Mueller-Hinton agar plates. […] The MBCs were evaluated for a total of nine clinical isolates: (i) three CRAB, (ii) three carbapenem-susceptible A. baumannii, and (iii) three A. non-baumannii isolates. The plates were incubated at 37°C for 24 h, and viable colonies were counted.

Assay [2] has as its system carbapenem-resistant CHDL-producing A. baumannii isolates (OXA-23, OXA-24/40, OXA-58). As to the kind of experiment: Checkerboard synergy assay (FIC index). The assay is classed as cell-based, Acinetobacter baumannii. The note with it: Acinetobacter baumannii, alone or in presence of the partner. Here is the method: Checkerboard assays were performed to assess synergistic interactions between the cefepime/enmetazobactam combination and sulbactam, as well as between enmetazobactam alone and either sulbactam or colistin. […] The assays were conducted with three multidrug-resistant A. baumannii isolates from the Spanish Multicenter Collection, each producing a different OXA-type carbapenemase: OXA-23, OXA-24/40, or OXA-58. The FIC index was calculated and interpreted as follows: FICindex ≤ 0.5, synergy; FICindex > 0.5–4, no synergy; and FICindex > 4, antagonism ([33], [34]).

The target of another assay is PBP1a (Acinetobacter baumannii, UniProt A0ABX6CK30). As to the kind of experiment: PBP-binding assay, Bocillin FL competition, membrane preparations. The note with it: A. baumannii ATCC 19606, read-out: IC50 (binding affinity) PBP1a. The procedure:
(§1) The possible involvement of A. baumannii PBPs as enmetazobactam targets was evaluated. […] The PBP-binding IC50 was determined in membrane preparations from three independent experiments, following previously described protocols ([13]).
(§2) Briefly, A. baumannii cultures were grown in Mueller-Hinton broth at 37°C with shaking at 180 rpm, and 400 mL were collected in late log phase (OD₆₀₀nm= 1), washed, and resuspended in 20 mM KH₂PO₄ and 140 mM NaCl (pH 7.5). After sonication, bacterial membranes were isolated by ultracentrifugation (150,000 g, 30 min). […] The Bocillin FL signal is inversely proportional to the binding capacity of the compounds tested to PBPs ([35]). The PBPs were separated by SDS-PAGE (Bio-Rad) and visualized with Odyssey M Imager (LI-COR). The IC₅₀ values were calculated using Empiria Studio software (LI-COR). The binding affinity was determined by comparing the change of the fluorescence in the presence or absence of the tested sulfones.

In another assay the target is PBP1b (Acinetobacter baumannii, UniProt A0ABX6CHI7). The description is as above. The note with it: A. baumannii ATCC 19606, read-out: IC50 (binding affinity) PBP1b (converted). The procedure: as §1, §2
For the next assay, the target named is T1, PBP2 (Acinetobacter baumannii, UniProt D0C8Z9).
T1 construct: endogenous in cells; host or cells: A. baumannii ATCC 19606 membrane fraction
Described as above. The procedure:
as §1, §2

A further assay concerns the target PBP3 (Acinetobacter baumannii, UniProt A0ABX6CK25). Described as above. Here is the method:
as §1, §2

The target of assay [3] is T2, OXA-23 (Acinetobacter baumannii, UniProt Q9L4P2).
T2 construct: GST (N); made in house; host or cells: Escherichia coli BL21
As to the kind of experiment: OXA-23 inhibition assay (nitrocefin hydrolysis IC50). The assay is classed as biochemical. The procedure: (§3) The Michaelis-Menten constant (Km) was determined by fitting the data to the Michaelis-Menten equation, following established protocols ([38]). The kcat (hydrolysis rate constant of the β-lactamase) was obtained by linearization of the kinetic data ([39]). To assess the possible inhibitory capacity of enmetazobactam against the CHDLs of A. baumannii, specific OXA-23 inhibition kinetics assays were performed in a Nanoquant Infinite spectrophotometer (Tecan). […] Also, the dissociation constant (koff), which represents the rate at which the enzyme-inhibitor complex dissociates (i.e., the proportion of the enzyme-inhibitor complex that dissociates per unit of time), was determined through a jump-dilution assay that monitored OXA-23 activity recovery as the enzyme-inhibitor complex dissociated. OXA-23 (1 µM) was preincubated for 30 min at 37°C with excess of inhibitors (50× IC₅₀) to ensure full acyl-enzyme complex formation. Subsequently, the mixture was diluted 1:5,000 to allow gradual complex dissociation. […] Enzymatic activity, reflecting the progressive dissociation of the acyl-enzyme complex, was monitored spectrophotometrically at 490 nm for 8 h. The resulting progress curves were fitted using GraphPad Prism (GraphPad Software, MA, USA) to equation 1 to estimate koff, where V0 is the initial, inhibited enzyme velocity; Vs is the steady-state uninhibited enzyme velocity, and t is time.

Assay [4] deals with T2, OXA-23. As to the kind of experiment: Jump-dilution dissociation assay (koff, t1/2) with OXA-23. To be noted: jump dilution, accurate koff not determinable. Format: biochemical. The procedure:
as §3
(1) P=Vs×t+(V0−Vs)×[1−exp^(−koff × t)]/koff

Where [5] appears, read: Acinetobacter, isolate NO-Ab84, A. bereziniae.
[6] abbreviates: Acinetobacter, isolate NO-Ab88, A. dijkshoorniae.
Setting [7] is: isolate Ab1, A. baumannii ST 164, ADC-6, OXA-91, non-CHDLs-producing.
Where [8] appears, read: isolate Ab4, A. baumannii ST 2, ADC-30, OXA-66, ISAba1-OXA-23.
The mark [9] stands for this setting: isolate Ab6, A. baumannii ST 2, ADC-30, OXA-66, ISAba1-OXA-23, TEM-12.
The mark [10] stands for this setting: isolate Ab9, A. baumannii ST 2, ADC-30, OXA-66, OXA-23, TEM-12.
Setting [11] is: isolate Ab11, A. baumannii ST 239, ADC-2, OXA-51, non-CHDLs-producing.
Setting [12] is: isolate Ab34, A. baumannii ST 2182, ADC-2, OXA-130, non-CHDLs-producing.
Where [13] appears, read: checkerboard sulbactam x enmetazobactam, isolate Ab4 (OXA-23).
[14] abbreviates: checkerboard sulbactam x enmetazobactam, isolate Ab138 (OXA-58).
[15] abbreviates: checkerboard sulbactam x enmetazobactam, isolate Ab180 (OXA-24/40).
Setting [16] is: A. baumannii ATCC 19606, read-out: IC50 (binding affinity) PBP3 (converted).

The MBC is the lowest tested concentration that kills the bacteria rather than only halting them. High values mean less potent killing, low ones more potent killing. Usually MIC stands for the lowest concentration that inhibits growth of the organism. As a reminder, the IC50 is the concentration that gives 50% inhibition.

PBP3, sequence (A0ABX6CK25 entry or part of it): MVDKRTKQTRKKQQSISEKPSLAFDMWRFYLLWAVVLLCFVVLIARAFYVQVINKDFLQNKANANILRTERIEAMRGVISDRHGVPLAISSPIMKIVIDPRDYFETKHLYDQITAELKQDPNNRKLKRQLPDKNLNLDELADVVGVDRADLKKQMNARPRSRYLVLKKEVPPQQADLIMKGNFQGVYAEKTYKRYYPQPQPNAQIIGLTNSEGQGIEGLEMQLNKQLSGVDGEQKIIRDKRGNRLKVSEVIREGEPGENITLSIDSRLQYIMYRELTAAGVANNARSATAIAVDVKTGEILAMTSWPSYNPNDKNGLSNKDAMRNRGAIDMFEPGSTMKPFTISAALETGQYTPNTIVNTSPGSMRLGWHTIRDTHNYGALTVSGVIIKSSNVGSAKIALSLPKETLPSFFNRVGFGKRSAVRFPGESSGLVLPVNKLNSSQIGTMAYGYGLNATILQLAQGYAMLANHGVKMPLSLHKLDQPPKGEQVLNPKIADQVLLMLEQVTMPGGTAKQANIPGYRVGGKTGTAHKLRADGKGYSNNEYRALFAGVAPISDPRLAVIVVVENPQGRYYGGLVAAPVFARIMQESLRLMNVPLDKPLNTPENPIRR
T2 sequence (Q9L4P2 18-273): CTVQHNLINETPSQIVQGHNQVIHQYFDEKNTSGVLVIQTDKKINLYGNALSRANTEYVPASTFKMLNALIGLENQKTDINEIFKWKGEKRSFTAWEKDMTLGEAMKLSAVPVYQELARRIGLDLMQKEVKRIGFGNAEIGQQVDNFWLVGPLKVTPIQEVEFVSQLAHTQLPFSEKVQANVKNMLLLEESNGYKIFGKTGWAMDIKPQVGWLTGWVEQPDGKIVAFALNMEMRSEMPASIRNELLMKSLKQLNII
T1 sequence (D0C8Z9 whole entry): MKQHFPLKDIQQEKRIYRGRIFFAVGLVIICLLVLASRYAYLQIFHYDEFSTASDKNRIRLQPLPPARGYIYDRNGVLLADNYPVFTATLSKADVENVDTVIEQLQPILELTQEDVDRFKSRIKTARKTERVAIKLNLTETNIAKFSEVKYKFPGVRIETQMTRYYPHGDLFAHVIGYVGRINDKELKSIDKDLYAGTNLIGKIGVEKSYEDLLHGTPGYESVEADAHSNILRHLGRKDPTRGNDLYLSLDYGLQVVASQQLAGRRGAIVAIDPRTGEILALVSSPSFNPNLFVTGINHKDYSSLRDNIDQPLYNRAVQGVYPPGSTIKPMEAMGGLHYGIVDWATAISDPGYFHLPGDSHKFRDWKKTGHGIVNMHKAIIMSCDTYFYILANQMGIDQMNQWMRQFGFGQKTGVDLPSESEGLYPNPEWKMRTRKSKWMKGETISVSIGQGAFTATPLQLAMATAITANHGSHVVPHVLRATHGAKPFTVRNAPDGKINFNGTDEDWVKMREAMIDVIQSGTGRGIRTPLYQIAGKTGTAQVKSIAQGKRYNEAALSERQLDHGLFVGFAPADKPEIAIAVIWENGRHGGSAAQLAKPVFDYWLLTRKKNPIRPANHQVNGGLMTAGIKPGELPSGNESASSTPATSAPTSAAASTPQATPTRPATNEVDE
PBP1a, sequence (A0ABX6CK30 entry or part of it): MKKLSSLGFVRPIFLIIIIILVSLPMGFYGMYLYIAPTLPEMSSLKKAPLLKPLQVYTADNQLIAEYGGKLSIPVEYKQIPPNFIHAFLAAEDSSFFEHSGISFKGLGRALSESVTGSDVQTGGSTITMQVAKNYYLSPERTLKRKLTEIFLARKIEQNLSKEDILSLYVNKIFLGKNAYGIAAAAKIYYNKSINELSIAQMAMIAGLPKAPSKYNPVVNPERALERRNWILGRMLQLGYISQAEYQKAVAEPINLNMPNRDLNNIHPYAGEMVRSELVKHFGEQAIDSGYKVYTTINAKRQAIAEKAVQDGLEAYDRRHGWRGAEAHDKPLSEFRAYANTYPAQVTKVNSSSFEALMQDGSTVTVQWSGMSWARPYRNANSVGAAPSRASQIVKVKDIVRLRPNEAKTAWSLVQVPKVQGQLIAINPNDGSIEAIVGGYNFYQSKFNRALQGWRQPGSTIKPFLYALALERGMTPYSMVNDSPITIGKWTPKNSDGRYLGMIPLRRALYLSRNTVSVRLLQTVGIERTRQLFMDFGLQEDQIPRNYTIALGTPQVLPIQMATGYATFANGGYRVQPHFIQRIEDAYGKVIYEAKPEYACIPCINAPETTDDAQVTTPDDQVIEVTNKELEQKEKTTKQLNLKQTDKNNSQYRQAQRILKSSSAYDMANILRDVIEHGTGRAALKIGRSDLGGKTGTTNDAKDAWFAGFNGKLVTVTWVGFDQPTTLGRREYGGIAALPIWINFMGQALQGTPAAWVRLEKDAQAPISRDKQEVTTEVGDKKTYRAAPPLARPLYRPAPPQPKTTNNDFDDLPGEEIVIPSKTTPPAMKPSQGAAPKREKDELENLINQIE

For `C[n+]1ccn(C[C@@]2(C)[C@H](C(=O)[O-])N3C(=O)C[C@H]3S2(=O)=O)n1` [enmetazobactam], the MBC in assay [1] (setting [5]) is 2 µg/mL (≈ 6.36 µM); in assay [1] (setting [6]) it was 2 µg/mL (≈ 6.36 µM); in assay [1] (setting [7]) it was 4 µg/mL (≈ 12.7 µM); in assay [1] (setting [8]) it was 64 µg/mL (≈ 204 µM); in assay [1] (setting [9]), 64 µg/mL (≈ 204 µM); in assay [1] (setting [10]) it was 8 µg/mL (≈ 25.5 µM). Also, the MBC was found to be 16 µg/mL (≈ 50.9 µM) in assay [1] (setting [11]); 8 µg/mL (≈ 25.5 µM) in assay [1] (setting [12]); 2 µg/mL (≈ 6.36 µM) in assay [1] (isolate NO-Ab89, A. pittii). Moreover, the “MBC relative to MIC” value in assay [1] was “the same or up to twofold higher”. Further, the MIC in assay [2] (checkerboard colistin x enmetazobactam, isolate Ab4 (OXA-23)) stood at 64 µg/mL; in assay [2] (checkerboard colistin x enmetazobactam, isolate Ab138 (OXA-58)), 32 µg/mL; in assay [2] (checkerboard colistin x enmetazobactam, isolate Ab180 (OXA-24/40)), 16 µg/mL; in assay [2] (setting [13]), 128 µg/mL; in assay [2] (setting [14]) it was 32 µg/mL; in assay [2] (setting [15]), 16 µg/mL. The IC50 at PBP1a is greater than 204 µM; on PBP1b it was greater than 204 µM; at PBP2 (membrane preparations, A. baumannii ATCC 19606, read-out: IC50 (binding affinity) PBP2 (converted)), 11.5 µM; at PBP3 (A. baumannii ATCC 19606, listed as Enmetazobactam, read-out: IC50 (binding affinity) PBP3 (converted)), 13.4 µM; at PBP3 (setting [16]), 13.5 µM; at OXA-23 [3] (OXA-23, nitrocefin hydrolysis, 10 min preincubation at room temperature, read-out: IC50), 32.4 µM. For the same compound, on OXA-23 [4], the “koff relative to that of durlobactam” value is listed as > 1,000 fold.

With `CC1(C)[C@H](C(=O)O)N2C(=O)C[C@H]2S1(=O)=O` [sulbactam], the minimum bactericidal concentration (MBC) in assay [1] (setting [5]) worked out at 1 µg/mL (≈ 4.29 µM); in assay [1] (setting [6]), 0.5 µg/mL (≈ 2.14 µM); in assay [1] (setting [7]), 1 µg/mL (≈ 4.29 µM); in assay [1] (setting [8]), 16 µg/mL (≈ 68.6 µM); in assay [1] (setting [9]), 16 µg/mL (≈ 68.6 µM); in assay [1] (setting [10]), 4 µg/mL (≈ 17.1 µM). The MBC in assay [1] (setting [11]) came to 2 µg/mL (≈ 8.57 µM); in assay [1] (setting [12]), 0.5 µg/mL (≈ 2.14 µM); in assay [1] (isolate NO-Ab89, A. pittii) it was 0.5 µg/mL (≈ 2.14 µM). Moreover, in assay [1], the “MBC relative to MIC” value is “the same or up to twofold higher”. The MIC in assay [2] (setting [13]) worked out at 16 µg/mL; in assay [2] (setting [14]), 8 µg/mL; in assay [2] (setting [15]) it was 2 µg/mL. The IC50 was greater than 274 µM at PBP1a; 9.6 µM at PBP1b; greater than 274 µM on PBP2 (IC50 (binding affinity) PBP2, membrane preparations, A. baumannii ATCC 19606); 9.73 µM at PBP3 (setting [16]); 29.2 µM on OXA-23 [3].
